13 molecules from ChEMBL document CHEMBL5325415, “Falcipains: Biochemistry, target validation and structure-activity relationship studies of inhibitors as antimalarials” (Eur J Med Chem, 2023) can be followed below.

*1 amine or outer side, *2 acyl side, *3 side chain or, on linkers, in order; H or OH if unused. Where a SMILES comes first, the peptide text is derived from it. [ ]: non-standard residue; d: D form. The star is where a group is joined. hPhe = N[C@@H](CCc1ccccc1)C(=O)O; Ac6c = NC1(C(=O)O)CCCCC1; Morpholide = C1CN(*)CCO1; Cbz = O=C(OCc1ccccc1)*; CO = O=C([*:1])[*:2]; CH2F = FC*

For data set [1], the system named is Plasmodium falciparum. Put plainly: Antimalarial activity against Chloroquine-resistant Plasmodium falciparum RKL9 infected in human erythrocytes assessed as inhibition of parasite growth incubated for 72 hrs by Giemsa staining based analysis. It counts as functional, organism-based. The conditions noted are these: RKL9, Erythrocyte.
Data set [2] concerns Plasmodium falciparum. Briefly: Antimalarial activity against Chloroquine-sensitive Plasmodium falciparum 3D7 infected in human erythrocytes assessed as inhibition of parasite growth incubated for 72 hrs by Giemsa staining based analysis. In kind it is functional, organism-based. The conditions noted are these: 3D7, Erythrocyte.
The target of data set [3] is T1, Falcipain 2 (Plasmodium falciparum, UniProt Q9N6S8).
T1 sequence (Q9N6S8 whole entry): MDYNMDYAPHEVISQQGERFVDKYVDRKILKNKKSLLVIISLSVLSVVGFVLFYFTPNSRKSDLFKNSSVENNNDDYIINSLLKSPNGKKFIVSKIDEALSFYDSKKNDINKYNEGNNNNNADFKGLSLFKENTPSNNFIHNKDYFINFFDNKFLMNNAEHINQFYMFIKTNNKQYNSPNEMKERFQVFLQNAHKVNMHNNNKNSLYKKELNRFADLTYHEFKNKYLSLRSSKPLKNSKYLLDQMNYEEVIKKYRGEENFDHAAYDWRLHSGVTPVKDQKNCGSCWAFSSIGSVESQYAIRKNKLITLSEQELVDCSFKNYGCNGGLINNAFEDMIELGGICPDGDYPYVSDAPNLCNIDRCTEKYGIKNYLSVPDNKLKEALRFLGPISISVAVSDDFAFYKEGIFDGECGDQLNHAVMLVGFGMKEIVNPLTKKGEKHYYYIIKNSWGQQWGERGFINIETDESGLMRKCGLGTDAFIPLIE
Put plainly: Inhibition of Plasmodium falciparum FP-2 using Z-Phe-Arg-AMC as substrate pretreated with enzyme for 10 mins followed by susbtrate addition and measured after 10 mins by fluorescence based analysis.

Data set [4] deals with Plasmodium falciparum. Put plainly: Antiplasmodial activity against Plasmodium falciparum W2 infected in human erythrocytes assessed as inhibition of parasite growth measured after 48 hrs by flow cytometry. It counts as functional, organism-based. The conditions noted are these: W2, Erythrocyte.
For data set [5], the target named is T1, Falcipain 2. Put plainly: Inhibition of Plasmodium falciparum FP-2 using Z-Leu-Arg-AMC as substrate pretreated with enzyme for 30 mins followed by substrate addition and measured for 15 mins by spectrofluorometry.
The target in data set [6] is T1, Falcipain 2. Briefly: Binding affinity to Plasmodium falciparum FP-2 by surface plasmon resonance analysis.
In data set [7] the test system is Plasmodium falciparum. Briefly: Antiplasmodial activity against chloroquine-sensitive Plasmodium falciparum D6 infected in human RBC assessed as inhibition of parasite growth measured after 72 hrs by Malstat assay. In kind it is functional, organism-based. The conditions noted are these: D6, Erythrocyte.
In data set [8] the target is T1, Falcipain 2. Briefly: Inhibition of Plasmodium falciparum FP-2 using Z-Leu-Arg-AMC as substrate pretreated with enzyme for 30 mins followed by substrate addition and measured for 30 mins by spectrofluorometry.
Data set [9] has as its system Plasmodium falciparum. Briefly: Antiplasmodial activity against chloroquine-resistant Plasmodium falciparum W2 infected in human RBC assessed as inhibition of parasite growth measured after 72 hrs by Malstat assay. It counts as functional, organism-based. Conditions: W2, Erythrocyte.
In data set [10] the test system is Plasmodium falciparum. Put plainly: Antiplasmodial activity against Plasmodium falciparum W2. In kind it is functional, organism-based.
The subject of data set [11] is Plasmodium falciparum. Put plainly: Antiplasmodial activity against Plasmodium falciparum Dd2. In kind it is functional, organism-based.
For data set [12], the system named is Plasmodium falciparum. Briefly: Antiplasmodial activity against Plasmodium falciparum D6. In kind it is functional, organism-based.
Data set [13] has as its system Plasmodium falciparum. Put plainly: Antiplasmodial activity against Plasmodium falciparum HB3. It counts as functional, organism-based.
The nature of data set [14]: Inhibition of Plasmodium vinckei extracts VP-2 using Z-phe-Arg-AMC as substrate pretreated with enzyme for 30 mins followed by substrate addition and measured for 30 mins by spectrofluorometry.
The subject of data set [15] is Plasmodium falciparum. Briefly: Antiplasmodial activity against Plasmodium falciparum ItG. It counts as functional, organism-based.
Data set [16] deals with T1, Falcipain 2. Briefly: Inhibition of Plasmodium falciparum Itg2 trophozite extracts FP-2 using Z-phe-Arg-AMC as substrate pretreated with enzyme for 30 mins followed by substrate addition and measured for 30 mins by spectrofluorometry.
Data set [17] concerns the target T1, Falcipain 2. Briefly: Inhibition of Plasmodium falciparum FP-2 using Cbz-Leu-Arg-AMC as substrate and measured for 5 to 10 mins by fluorescence spectrophotometric analysis.
In data set [18] the test system is Cathepsin L (relative to Plasmodium falciparum FP-2). Briefly: Selectivity index, ratio of Ki for inhibition of human Cathepsin L to Ki for inhibition of Plasmodium falciparum FP-2. In kind it is toxicity. Conditions: read-out: Ratio Ki.
Data set [19] has as its system Cathepsin B (relative to Plasmodium falciparum FP-2). Briefly: Selectivity index, ratio of Ki for inhibition of human Cathepsin B to Ki for inhibition of Plasmodium falciparum FP-2. In kind it is toxicity. The conditions noted are these: read-out: Ratio Ki.
The target of another data set is T2, Falcipain-3 (Plasmodium falciparum 3D7, UniProt Q8IIL0).
T2 sequence (Q8IIL0 whole entry): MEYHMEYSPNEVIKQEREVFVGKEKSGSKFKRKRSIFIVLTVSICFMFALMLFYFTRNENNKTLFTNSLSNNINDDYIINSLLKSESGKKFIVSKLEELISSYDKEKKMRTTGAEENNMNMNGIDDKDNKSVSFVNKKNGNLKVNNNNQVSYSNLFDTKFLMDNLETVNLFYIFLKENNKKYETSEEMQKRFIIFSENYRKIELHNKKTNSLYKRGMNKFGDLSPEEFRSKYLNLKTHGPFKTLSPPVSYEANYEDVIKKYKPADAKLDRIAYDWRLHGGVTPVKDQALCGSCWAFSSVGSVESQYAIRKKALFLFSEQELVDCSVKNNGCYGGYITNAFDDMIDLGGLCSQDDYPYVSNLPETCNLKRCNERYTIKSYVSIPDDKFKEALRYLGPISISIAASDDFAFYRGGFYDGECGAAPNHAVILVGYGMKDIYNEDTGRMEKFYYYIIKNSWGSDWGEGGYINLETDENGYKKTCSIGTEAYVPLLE
Put plainly: Inhibition of Plasmodium falciparum D10 trophozite lysates FP-3 pretreated with compound for 1 hr followed by labeling with Cy5-DCG04 for 1 hr by fluorescence scanning analysis. In kind it is subcellular.

The subject of a further data set is Plasmodium vinckei. Put plainly: Antimalarial activity against Plasmodium vinckei infected in Swiss webster mouse assessed as disease cure rate at 50 to 100 mg/kg, po administered twice a day for 4 days. It counts as functional. The conditions noted are these: dose 50-100 mg/kg, time 4 day.
In data set [20] the target is T1, Falcipain 2. Put plainly: Inhibition of Plasmodium falciparum trophozite extracts FP-2.
Data set [21] relates to Plasmodium falciparum. Put plainly: Antiplasmodial activity against Plasmodium falciparum ItG2. In kind it is functional. The conditions noted are these: read-out: LD50 (the source's name).
Data set [22] concerns Plasmodium falciparum. Put plainly: Antiplasmodial activity against Plasmodium falciparum FCR3. In kind it is functional, organism-based.
Data set [23] relates to Plasmodium falciparum. Briefly: Antimalarial activity against Plasmodium falciparum FCB1 infected in erythrocytes assessed as inhibition of [3H]hypoxanthine incorporation incubated for 24 to 48 hrs by beta counting analysis. Conditions: FCB1, Erythrocyte. It counts as functional, organism-based.
Data set [24] has as its target T1, Falcipain 2. Briefly: Inhibition of Plasmodium falciparum FP-2 using Z-phe-Arg-AMC as substrate pretreated with enzyme for 30 mins followed by substrate addition and measured for 30 mins by fluorescence based analysis.
Another data set deals with Heme. Put plainly: Inhibition of heme (unknown origin) assessed as inhibition of hemozoin formation incubated for 24 hrs by FBIT test.

Usually IC50 stands for the concentration that inhibits the measured activity by half. What is called EC50 is the concentration at which the effect is half-maximal. A word on the Kd: it is the free concentration of one partner at which half of the binding sites on the other are occupied at equilibrium, for simple one-to-one binding. Read a low Kd as tighter binding. Usually Ki stands for a dissociation constant, usually derived from enzyme kinetics or from competition with a known ligand. The low end stands for a stronger hold on the target, the high end for a looser hold on the target.

Turning to `COc1cc(/C=C(\C#N)c2nc3ccccc3[nH]2)cc(OC)c1`, the 50% inhibitory concentration (IC50) in the data set on Plasmodium falciparum [1] turned out to be 14300 nM; in the data set with Plasmodium falciparum [2], 1600 nM; at Falcipain 2 [3] it was 3610 nM.
As to `COc1cc(OC)c(/C=C2\SC(=O)N(CC(=O)N3CCN(c4ccccc4)CC3)C2=O)c(OC)c1`, the EC50 in the data set on Plasmodium falciparum [4] came out at 450 nM. The half-maximal inhibitory concentration (IC50) at Falcipain 2 [5] is 25500 nM.
`O=C(/C=C\c1ccc(O)c(O)c1)O[C@H]1CO[C@@H](Oc2c(-c3ccc(O)cc3)oc3cc(O)cc(O)c3c2=O)[C@H](OC(=O)/C=C/c2ccc(O)cc2)[C@H]1O` registered a dissociation constant (Kd) at Falcipain 2 [6] of 33600 nM. Further, the IC50 in the data set on Plasmodium falciparum [7] turned out to be 2900 nM; at Falcipain 2 [8], 440 nM; in the data set on Plasmodium falciparum [9] it was 2800 nM.
Take `CC(C)C[C@H](NC(=O)N1CCN(C)CC1)C(=O)N[C@H](/C=C/S(=O)(=O)c1ccccc1)CCc1ccccc1`: the concentration for half-maximal inhibition (IC50) with Plasmodium falciparum [10] amounted to 0.45 nM; with Plasmodium falciparum [11], 0.4 nM; with Plasmodium falciparum [12], 0.58 nM; in the data set with Plasmodium falciparum [13], 0.44 nM; in data set [14], 200 nM; in the data set on Plasmodium falciparum [15], 0.6 nM. Also, on Falcipain 2 [16], the 50% inhibitory concentration (IC50) came out at 5 nM.
`N#CCNC(=O)C1(NC(=O)OCc2ccccc2)CCCCC1`: the inhibitory constant (Ki) on Falcipain 2 [17] is 1200 nM. Moreover, the selectivity ratio is 22.1 in data set [18] and greater than 100 in data set [19].
For `O=CCNC(=O)C1(NC(=O)OCc2ccccc2)CCCCC1` (Cbz-[Ac6c]-Gly-aldehyde) the same measures were 65 nM, 12.6 and 20.8.
In the case of `CC[C@H](C)[C@@H](C(=O)O[C@@H](CC(C)C)C(=O)N[C@@H](CC(C)C)C(=O)N[C@@H](C)/C=C/C(=O)N1C(=O)C=C(OC)[C@@H]1C)N(C)C` [GALLINAMIDE A], at Falcipain-3, the IC50 turned out to be 22 nM.
For `CC(C)C[C@H](NC(=O)N1CCN(C)CC1)C(=O)N[C@H](/C=C/S(=O)(=O)c1ccc2ccccc2c1)CCc1ccccc1`, the IC50 amounted to 0.2 nM with Plasmodium falciparum [10]; 0.32 nM with Plasmodium falciparum [11]; 0.22 nM in the data set on Plasmodium falciparum [12]; 0.19 nM in the data set with Plasmodium falciparum [13]; 20 nM in [14]; 0.18 nM with Plasmodium falciparum [15]. Moreover, the IC50 on Falcipain 2 [16] was found to be 2 nM. Also, the Activity with Plasmodium vinckei stood at 40%.
The molecule `CC(C)C[C@H](NC(=O)N1CCOCC1)C(=O)N[C@@H](CCc1ccccc1)C(=O)CF` ({Morpholide-CO}-Leu-[hPhe]-CH2F) registered an IC50 against Falcipain 2 [20] of 0.42 nM.
As to `N=C(N)NCCC[C@H](NC(=O)[C@H](Cc1ccccc1)NC(=O)OCc1ccccc1)C(=O)CF` (Cbz-Phe-Arg-CH2F), the LC50 in the data set on Plasmodium falciparum [21] was determined as 64 nM. The 50% inhibitory concentration (IC50) in the data set with Plasmodium falciparum [10] came out at 64 nM; in the data set with Plasmodium falciparum [12], 64 nM; in the data set on Plasmodium falciparum [22], 64 nM; with Plasmodium falciparum [13] it was 100 nM; on Falcipain 2 [20] it was 0.36 nM.
For the molecule `COc1cc2cc(/C=C/C(=O)c3ccc(Cl)cc3Cl)c(Cl)nc2cc1OC`, the IC50 is 19000 nM in the data set with Plasmodium falciparum [23] and greater than 100000 nM on Falcipain 2 [24].
For the molecule `O=C(CF)[C@H](CCc1ccccc1)NC(=O)[C@H](Cc1ccccc1)NC(=O)N1CCOCC1` ({Morpholide-CO}-Phe-[hPhe]-CH2F), the half-maximal inhibitory concentration (IC50) was found to be 0.81 nM in the data set with Plasmodium falciparum [10]; 0.78 nM in the data set on Plasmodium falciparum [11]; 0.9 nM in the data set with Plasmodium falciparum [12]; 0.66 nM in the data set on Plasmodium falciparum [13]; 3 nM at Falcipain 2 [20]; 0.51 nM with Plasmodium falciparum [15].
On to `COc1cccc(/C=C(\C#N)c2nc3ccccc3[nH]2)c1`, for which the concentration for half-maximal inhibition (IC50) was 3410 nM in the data set with Plasmodium falciparum [1], 690 nM with Plasmodium falciparum [2], 2210 nM on Falcipain 2 [3] and 260 nM in the data set with Heme.
